Assay results: ChEMBL document CHEMBL1201862, “PubChem BioAssay data set” (2004)
Each block holds one molecule with its values, some of them ahead of it. The source made the active and inactive calls.

Experiments:
[1] = molecular target: T1, Oxysterols receptor LXR-beta (Homo sapiens, UniProt P55055); type: functional, cell-based
T1 sequence (P55055 whole entry): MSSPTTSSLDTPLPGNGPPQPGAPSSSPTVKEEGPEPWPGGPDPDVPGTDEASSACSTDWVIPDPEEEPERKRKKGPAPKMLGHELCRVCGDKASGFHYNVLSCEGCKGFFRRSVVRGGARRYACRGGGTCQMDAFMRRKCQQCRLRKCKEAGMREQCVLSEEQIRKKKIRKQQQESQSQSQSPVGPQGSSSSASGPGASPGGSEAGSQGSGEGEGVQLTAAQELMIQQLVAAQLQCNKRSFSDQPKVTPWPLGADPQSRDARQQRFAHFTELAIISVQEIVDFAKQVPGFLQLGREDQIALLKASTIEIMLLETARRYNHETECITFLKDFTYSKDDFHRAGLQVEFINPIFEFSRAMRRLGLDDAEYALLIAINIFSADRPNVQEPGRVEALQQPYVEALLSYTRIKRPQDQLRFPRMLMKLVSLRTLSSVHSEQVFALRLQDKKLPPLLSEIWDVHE

[2] = molecular target: T1, Oxysterols receptor LXR-beta; assay: LXR agonists, Gal4 luciferase reporter, dose response, counter-screen for ssDAF-12 agonist project, cell-based, luminescence, HEK293, S. stercoralis campaign (AID 720737); type: functional; details: read-out: IC50 (the source's name)
[3] = cells
[4] = Luminescence-based cell-based high throughput dose response assay to identify activators of the DAF-12 from the parasite S. stercoralis (ssDAF-12).; type: functional
[5] = molecular target: NAD-dependent protein deacylase sirtuin-5, mitochondrial (Homo sapiens, UniProt Q9NXA8); assay: sirtuin-5 deacylation blockers, concentration series – biochemical, fluorescence imaging, cherry-pick, set 5, dose response (AID 720591);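 note: desuccinylation of succinyl peptide AMC substrate read as fluorescence after trypsin release; potency of inhibitors that lower fluorescence and may act on trypsin instead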
[6] = molecular target: 1-phosphatidylinositol 4,5-bisphosphate phosphodiesterase gamma-1 (Homo sapiens, UniProt P19174); assay: Counterscreen for inhibitors of phospholipase C isozymes (PLC-B3): Fluorescence-based biochemical high throughput dose response assay to identify inhibitors of phospholipase C isozymes (PLC-gamma1).
[7] = molecular target: 1-phosphatidylinositol 4,5-bisphosphate phosphodiesterase beta-3 (Homo sapiens, UniProt Q01970); assay: Fluorescence-based biochemical high throughput dose response assay to identify inhibitors of phospholipase C isozymes (PLC-B3).
[8] = HIV-1 AD8 envelope cell-cell fusion blockers – cherry-pick, dose response (AID 652062); type: functional, cell-based;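 note: luciferase signal from cell-cell fusion driven by HIV-1 clade B AD8 Env; potency is for inhibitors of fusion seen as a drop in luminescence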
[9] = blockers of HIV-1 ZM109 envelope-driven cell-cell fusion – HeLa effector, CEM target cells, luciferase, cherry-pick, dose response (AID 652058); type: functional, cell-based;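 note: luciferase signal from HIV-1 Env mediated cell-cell fusion of effector and target cells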
[10] = cells; type: functional, cell-based; details: HEK-CNG
[11] = molecular target: T2, High affinity choline transporter 1 (Homo sapiens, UniProt Q9GZV3); assay: human choline transporter blockers, potency – cell-based, 5-point CRC, membrane potential dye, dose response (AID 504840); type: functional
T2 sequence (Q9GZV3 whole entry): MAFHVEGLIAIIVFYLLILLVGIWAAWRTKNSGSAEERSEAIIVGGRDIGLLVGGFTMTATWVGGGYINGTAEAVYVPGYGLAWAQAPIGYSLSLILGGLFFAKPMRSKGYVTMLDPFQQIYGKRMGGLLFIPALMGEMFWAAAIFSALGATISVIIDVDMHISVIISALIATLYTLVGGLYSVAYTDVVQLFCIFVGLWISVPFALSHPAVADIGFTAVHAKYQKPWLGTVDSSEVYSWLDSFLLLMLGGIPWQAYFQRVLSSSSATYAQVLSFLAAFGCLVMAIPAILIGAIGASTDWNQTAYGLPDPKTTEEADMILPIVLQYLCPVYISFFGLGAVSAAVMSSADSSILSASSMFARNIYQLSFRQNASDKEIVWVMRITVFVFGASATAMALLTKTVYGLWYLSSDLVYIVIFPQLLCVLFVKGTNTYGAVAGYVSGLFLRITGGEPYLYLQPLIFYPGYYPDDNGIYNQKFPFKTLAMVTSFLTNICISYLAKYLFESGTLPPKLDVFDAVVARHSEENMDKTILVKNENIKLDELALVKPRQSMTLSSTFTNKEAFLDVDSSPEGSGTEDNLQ

[12] = molecular target: COUP transcription factor 2 (Homo sapiens, UniProt P24468); assay: Luminescence-based cell-based high throughput dose response assay to identify inhibitors of COUP-TFII (NR2F2).; type: functional;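 note: HEK293 cells transiently cotransfected with COUP-TFII expression vector and reporter; luciferase reporter luminescence driven by COUP-TFII from the pX2-168 reporter plasmid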
[13] = molecular target: T3, Galanin receptor type 3 (Homo sapiens, UniProt O60755); assay: Fluorescence-based cell-based primary high throughput dose response assay to identify antagonists of the Galanin Receptor 3 (GalR3).; type: functional
T3 sequence (O60755 whole entry): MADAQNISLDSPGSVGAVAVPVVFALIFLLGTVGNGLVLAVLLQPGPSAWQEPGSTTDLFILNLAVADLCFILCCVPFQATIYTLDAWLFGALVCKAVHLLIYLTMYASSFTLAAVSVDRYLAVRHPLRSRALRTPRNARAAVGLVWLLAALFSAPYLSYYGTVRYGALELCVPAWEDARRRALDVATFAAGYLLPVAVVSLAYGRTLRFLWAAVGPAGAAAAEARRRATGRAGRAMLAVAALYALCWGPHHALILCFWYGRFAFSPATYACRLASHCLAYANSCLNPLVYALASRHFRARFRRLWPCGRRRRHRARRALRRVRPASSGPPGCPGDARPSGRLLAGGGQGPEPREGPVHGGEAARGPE

[14] = HEK-293T cell viability reduction – luminescence, B-cell screen hits, cytotoxicity control for BCR NF-kB inhibitor project, dose response (AID 489021); type: functional, cell-based;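 note: HEK-293T cells carrying an NF-kB luciferase reporter; cells exposed to compound for about 14 hours before viability readout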
[15] = system: INS1; assay: INS-1E survival protection against cytokine death – cell-based, luminescence, retest, dose response (AID 449756); type: functional; details: Rattus norvegicus;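 note: cell death triggered by IL-1 beta plus TNF-alpha plus IFN-gamma mixture; protective hits raise ATP signal compared with cytokine alone wells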
[16] = cells; type: functional, cell-based
[17] = molecular target: T4, Nuclear receptor subfamily 0 group B member 1 (Homo sapiens, UniProt P51843); type: functional, cell-based;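 note: HEK293T cells transfected with SF-1 and DAX-1 plus StAR promoter luciferase reporter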
T4 sequence (P51843 whole entry): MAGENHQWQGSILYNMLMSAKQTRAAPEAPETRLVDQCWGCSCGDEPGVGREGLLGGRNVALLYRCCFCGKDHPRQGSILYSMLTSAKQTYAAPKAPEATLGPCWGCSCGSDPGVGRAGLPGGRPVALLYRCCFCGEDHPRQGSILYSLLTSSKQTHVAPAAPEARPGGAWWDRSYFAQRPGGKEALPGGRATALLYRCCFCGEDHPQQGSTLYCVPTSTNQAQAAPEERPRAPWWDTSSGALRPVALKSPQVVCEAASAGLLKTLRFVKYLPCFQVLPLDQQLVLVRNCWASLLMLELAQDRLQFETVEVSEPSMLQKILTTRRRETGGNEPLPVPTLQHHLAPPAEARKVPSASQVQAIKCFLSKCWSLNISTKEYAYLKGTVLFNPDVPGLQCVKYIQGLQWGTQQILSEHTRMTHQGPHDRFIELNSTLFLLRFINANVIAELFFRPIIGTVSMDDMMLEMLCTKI

[18] = OVCAR-3 cell viability loss – plate reader, dry powder samples, PAX8 inhibitor project, dose response (AID 743044); type: functional, cell-based
[19] = OV-90 cell viability loss – plate reader, dry powder, SA8, PAX8 inhibitor project, dose response (AID 743149); type: functional, cell-based
[20] = A2780 cell killing – plate reader, dry powder samples, cytotoxicity control, dose response (AID 743046); type: functional, cell-based
[21] = PAX5 cellular inhibition readout – cell-based, plate reader, dry powder samples, selectivity assay for PAX8 inhibitor project, dose response (AID 743047); type: functional;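 note: HEK293 cells carrying a Pax5 driven CD19 promoter luciferase reporter; potency of inhibitors that lower reporter luminescence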
[22] = OVCAR8 cell viability loss – plate reader, dry powder samples, PAX8 project, dose response (AID 743197); type: functional, cell-based; details: OVCAR-8
[23] = inhibitors acting on PAX2 in cells – cell-based, plate reader, dry powder samples, selectivity assay for PAX8 inhibitor project, dose response (AID 743048); type: functional;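 note: HEK293 cells carrying a WT1 promoter luciferase reporter driven by expressed Pax2; potency is for inhibition of Pax2 driven reporter signal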
[24] = molecular target: Paired box protein Pax-8 (Homo sapiens, UniProt Q06710); assay: PAX8 transcriptional activity inhibition in RMG-I – RMG-I cells, luciferase, cherry-pick, dose response (AID 687027); type: functional, cell-based;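 note: luciferase reporter driven by Pax8 target thyroperoxidase promoter measured by SteadyGlo luminescence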
[25] = PAX8-dependent cell viability loss – plate reader, dry powder, dose response (AID 743049); type: functional, cell-based
[26] = COV434 cell viability loss – plate reader, dry powder, SA7, cytotoxicity control for PAX8 inhibitor project, dose response (AID 743145); type: functional, cell-based
[27] = COV362 cell viability loss – plate reader, dry powder, SA12, cytotoxicity control for PAX8 inhibitor project, dose response (AID 743144); type: functional, cell-based
[28] = reduction of Shn3 3'UTR-driven luciferase in osteoblasts – cell-based, Clone20 osteoblasts, firefly luciferase, cherry-picked, dose response (AID 624132); type: functional;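 note: firefly luciferase luminescence from reporter carrying the Shn3 3'UTR in osteoblasts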
[29] = molecular target: Protein Wnt-3a (Mus musculus, UniProt P27467); assay: antagonism of Wnt3a pathway luciferase reporter – Wnt-LIGHT cells, luminescence, selectivity assay for Gli-SUFU antagonist project, dose response (AID 651570); type: functional; details: read-out: IC50_Mean;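 note: Wnt-LIGHT reporter cells stimulated with conditioned medium from Wnt3a-producing cells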
[30] = Shn3 3'UTR reporter signal decrease – cell-based, Clone20 osteoblasts, firefly luciferase, cherry-pick, set 2, Schnurri-3 inhibitor project, dose response (AID 720490); type: functional;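 note: actives lower the luminescence signal as inhibitors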
[31] = loss of viability in HepG2 cells – cell-based, CellTiter-Glo, cherry-picked, cytotoxicity control for Shn3 inhibitor project, dose response (AID 624134); type: functional
[32] = non-specific 3'UTR reporter inhibition in Clone20-Shn3RL – cell-based, Renilla luciferase, cherry-picked, counter-screen for Shn3 inhibitor project, dose response (AID 624133); type: functional
[33] = molecular target: T1, Oxysterols receptor LXR-beta; type: functional, cell-based; remark: listed apart in the source
[34] = cells; type: functional, cell-based; remark: listed apart in the source
[35] = cells; type: functional, cell-based; remark: listed apart in the source

Chain of NAD-dependent protein deacylase sirtuin-5, mitochondrial (Q9NXA8 whole entry): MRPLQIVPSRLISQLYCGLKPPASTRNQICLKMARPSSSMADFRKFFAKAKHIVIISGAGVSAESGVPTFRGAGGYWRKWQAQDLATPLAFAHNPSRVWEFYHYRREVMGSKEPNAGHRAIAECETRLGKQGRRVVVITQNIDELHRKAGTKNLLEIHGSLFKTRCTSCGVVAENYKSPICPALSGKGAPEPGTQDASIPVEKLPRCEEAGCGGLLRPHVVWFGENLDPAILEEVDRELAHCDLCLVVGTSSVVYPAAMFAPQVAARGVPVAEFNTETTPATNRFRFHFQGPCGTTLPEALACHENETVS
Chain of 1-phosphatidylinositol 4,5-bisphosphate phosphodiesterase gamma-1 (P19174 whole entry): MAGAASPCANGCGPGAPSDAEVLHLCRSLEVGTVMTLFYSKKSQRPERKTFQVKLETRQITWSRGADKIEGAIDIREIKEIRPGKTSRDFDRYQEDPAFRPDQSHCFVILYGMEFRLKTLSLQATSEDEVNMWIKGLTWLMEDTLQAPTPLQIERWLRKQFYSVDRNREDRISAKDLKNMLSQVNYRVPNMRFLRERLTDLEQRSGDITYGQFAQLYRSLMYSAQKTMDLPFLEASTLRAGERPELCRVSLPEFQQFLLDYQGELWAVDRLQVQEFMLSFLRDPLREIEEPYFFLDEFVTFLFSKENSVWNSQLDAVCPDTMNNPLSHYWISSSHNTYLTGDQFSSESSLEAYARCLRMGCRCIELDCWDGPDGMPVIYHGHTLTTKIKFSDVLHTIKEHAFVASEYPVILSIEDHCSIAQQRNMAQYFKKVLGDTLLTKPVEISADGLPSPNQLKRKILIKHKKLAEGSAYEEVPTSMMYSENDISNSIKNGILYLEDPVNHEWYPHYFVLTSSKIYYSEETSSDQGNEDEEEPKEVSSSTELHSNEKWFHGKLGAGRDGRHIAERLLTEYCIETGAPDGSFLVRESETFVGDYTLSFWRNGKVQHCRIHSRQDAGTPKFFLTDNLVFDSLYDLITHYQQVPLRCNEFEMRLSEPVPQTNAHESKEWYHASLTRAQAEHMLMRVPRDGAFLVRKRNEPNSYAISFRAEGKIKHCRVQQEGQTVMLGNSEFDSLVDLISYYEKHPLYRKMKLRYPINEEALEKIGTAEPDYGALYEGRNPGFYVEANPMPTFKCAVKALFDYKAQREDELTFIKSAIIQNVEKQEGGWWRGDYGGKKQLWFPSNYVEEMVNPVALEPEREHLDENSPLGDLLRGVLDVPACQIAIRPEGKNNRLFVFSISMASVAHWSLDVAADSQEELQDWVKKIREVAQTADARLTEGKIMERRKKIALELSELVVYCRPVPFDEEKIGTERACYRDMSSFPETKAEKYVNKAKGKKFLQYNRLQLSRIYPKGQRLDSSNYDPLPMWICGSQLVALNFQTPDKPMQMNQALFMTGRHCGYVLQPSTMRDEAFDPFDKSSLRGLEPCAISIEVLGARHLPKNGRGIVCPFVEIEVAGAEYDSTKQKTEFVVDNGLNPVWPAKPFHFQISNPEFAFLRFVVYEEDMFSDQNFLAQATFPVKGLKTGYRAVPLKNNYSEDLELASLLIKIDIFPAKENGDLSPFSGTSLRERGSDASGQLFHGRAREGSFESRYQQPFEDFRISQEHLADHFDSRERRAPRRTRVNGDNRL
Chain of 1-phosphatidylinositol 4,5-bisphosphate phosphodiesterase beta-3 (Q01970 whole entry, the tested form may be a part): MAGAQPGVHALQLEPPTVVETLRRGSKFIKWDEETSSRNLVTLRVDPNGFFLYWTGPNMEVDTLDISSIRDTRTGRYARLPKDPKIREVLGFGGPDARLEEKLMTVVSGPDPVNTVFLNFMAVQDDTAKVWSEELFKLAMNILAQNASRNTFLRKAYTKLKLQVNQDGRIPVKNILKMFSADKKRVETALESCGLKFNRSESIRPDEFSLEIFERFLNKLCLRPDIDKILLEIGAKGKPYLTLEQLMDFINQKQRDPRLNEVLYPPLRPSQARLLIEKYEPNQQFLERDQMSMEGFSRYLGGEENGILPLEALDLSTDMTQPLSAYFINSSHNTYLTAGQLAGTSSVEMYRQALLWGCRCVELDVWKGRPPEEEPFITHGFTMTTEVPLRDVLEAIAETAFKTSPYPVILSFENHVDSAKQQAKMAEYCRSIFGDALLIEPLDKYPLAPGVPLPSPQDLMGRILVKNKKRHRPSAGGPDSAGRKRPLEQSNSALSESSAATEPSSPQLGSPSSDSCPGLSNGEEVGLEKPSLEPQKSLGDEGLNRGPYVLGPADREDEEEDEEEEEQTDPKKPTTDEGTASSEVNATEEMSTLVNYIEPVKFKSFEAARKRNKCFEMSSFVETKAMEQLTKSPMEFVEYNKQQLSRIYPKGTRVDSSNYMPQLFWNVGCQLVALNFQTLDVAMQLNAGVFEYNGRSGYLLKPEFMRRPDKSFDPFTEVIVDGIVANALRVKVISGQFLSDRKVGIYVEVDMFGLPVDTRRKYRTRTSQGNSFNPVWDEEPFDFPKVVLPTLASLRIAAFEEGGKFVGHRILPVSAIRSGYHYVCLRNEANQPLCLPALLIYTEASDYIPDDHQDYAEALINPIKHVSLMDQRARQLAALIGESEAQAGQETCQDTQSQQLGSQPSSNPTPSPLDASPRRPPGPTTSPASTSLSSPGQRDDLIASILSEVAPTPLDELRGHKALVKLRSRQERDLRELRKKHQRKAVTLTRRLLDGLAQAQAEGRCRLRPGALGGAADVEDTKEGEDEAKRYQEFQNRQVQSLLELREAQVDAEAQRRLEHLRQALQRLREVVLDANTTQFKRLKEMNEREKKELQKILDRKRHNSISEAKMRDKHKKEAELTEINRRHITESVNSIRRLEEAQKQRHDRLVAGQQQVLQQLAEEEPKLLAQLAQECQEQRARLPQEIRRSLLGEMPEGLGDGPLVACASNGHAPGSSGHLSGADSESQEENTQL
Chain of Protein Wnt-3a (P27467 whole entry): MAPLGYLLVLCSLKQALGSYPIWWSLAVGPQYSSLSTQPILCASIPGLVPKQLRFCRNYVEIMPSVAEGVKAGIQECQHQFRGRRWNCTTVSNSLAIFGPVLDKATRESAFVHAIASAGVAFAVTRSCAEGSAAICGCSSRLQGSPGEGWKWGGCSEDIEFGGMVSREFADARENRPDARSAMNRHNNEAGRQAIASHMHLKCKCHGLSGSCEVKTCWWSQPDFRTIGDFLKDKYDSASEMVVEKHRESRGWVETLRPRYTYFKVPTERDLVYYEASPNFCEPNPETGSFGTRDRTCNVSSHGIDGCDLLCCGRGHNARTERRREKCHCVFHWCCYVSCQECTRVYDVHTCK
Chain of Paired box protein Pax-8 (Q06710 whole entry): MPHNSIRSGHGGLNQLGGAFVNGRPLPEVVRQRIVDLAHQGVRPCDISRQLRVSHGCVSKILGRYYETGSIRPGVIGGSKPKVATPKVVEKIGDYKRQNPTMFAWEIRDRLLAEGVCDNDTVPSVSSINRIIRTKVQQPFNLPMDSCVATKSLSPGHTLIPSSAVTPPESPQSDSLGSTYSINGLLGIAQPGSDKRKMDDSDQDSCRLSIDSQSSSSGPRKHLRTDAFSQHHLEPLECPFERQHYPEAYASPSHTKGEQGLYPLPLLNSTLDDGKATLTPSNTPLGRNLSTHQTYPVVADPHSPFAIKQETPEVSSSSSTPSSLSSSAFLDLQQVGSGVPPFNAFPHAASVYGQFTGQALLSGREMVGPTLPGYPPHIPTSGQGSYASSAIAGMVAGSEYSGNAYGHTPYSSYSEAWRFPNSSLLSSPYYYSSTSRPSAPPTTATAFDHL
Chain of COUP transcription factor 2 (P24468 whole entry): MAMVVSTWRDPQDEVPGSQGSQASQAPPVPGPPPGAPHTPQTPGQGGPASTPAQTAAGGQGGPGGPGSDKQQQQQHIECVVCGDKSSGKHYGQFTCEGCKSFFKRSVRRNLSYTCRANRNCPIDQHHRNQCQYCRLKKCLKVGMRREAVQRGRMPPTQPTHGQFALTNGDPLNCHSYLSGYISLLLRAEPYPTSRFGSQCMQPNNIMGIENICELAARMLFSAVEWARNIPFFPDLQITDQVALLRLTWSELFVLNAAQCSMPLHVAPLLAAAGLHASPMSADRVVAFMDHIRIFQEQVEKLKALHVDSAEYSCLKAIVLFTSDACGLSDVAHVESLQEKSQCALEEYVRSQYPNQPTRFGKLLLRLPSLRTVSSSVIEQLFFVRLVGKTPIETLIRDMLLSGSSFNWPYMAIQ

SMILES: C(=Cc1c[nH]c2ccccc12)c1nccc2ccccc12
EC50 [1]: > 67.4 µM (inactive)
EC50 [2]: > 67.6 µM (inactive)
EC50 [3]: > 67.4 µM (inactive)
IC50 [4]: > 67.6 µM (inactive)

AC50 [5]: > 30 µM (inactive)
SMILES: Cc1ccc(S(=O)(=O)N2C[C@@H]3CCCC[C@@H]3[C@@H](C)[C@H]2c2cn(Cc3ccccc3)c3ccc(F)cc23)cc1

IC50 [6]: 59.1 µM (inactive)
IC50 [7]: 55.4 µM (inactive)
SMILES: CCCNC(=O)C[C@H]1CC[C@H]2[C@@H](COc3ccc(NC(=O)c4cncs4)cc3C(=O)N2C)O1

SMILES: Cc1nn(C)c(C)c1CN(C)S(=O)(=O)c1ccc2ccccc2c1
AC50 [8]: 2.42 µM (active)
AC50 [9]: 626 nM (active)
EC50 [10]: > 29.9 µM (inactive)
IC50 [11]: 12.6 µM (active)
IC50 [12]: 3.25 µM (active)
IC50 [13]: 1.01 µM (active)
IC50 [14]: > 80 µM (inactive)
AC50 [15]: 1.93 µM (active)

IC50 [6]: 2.7 µM (active)
IC50 [7]: > 122 µM (inactive)
SMILES: COC(=O)C(C)(C)c1cccnc1C#N

SMILES: O=C(Nc1ccccn1)c1sc2cccc(F)c2c1Cl
EC50 [1]: > 67.6 µM (inactive)
EC50 [3]: > 67.6 µM (inactive)
IC50 [16]: > 67.6 µM (inactive)
IC50 [17]: > 834 nM (active)

AC50 [5]: > 30 µM (inactive)
SMILES: CCOc1ccc(CCNC(=O)c2cccc(S(=O)(=O)N3CCN(C(C)=O)CC3)c2)cc1OCC

SMILES: CCCC#Cc1ccc([C@H]2[C@@H](C#N)N(C(=O)C3CCCCC3)[C@H]2CO)cc1
AC50 [18]: 29.6 µM (active)
AC50 [19]: 28 µM (active)
AC50 [20]: 23.9 µM (active)
AC50 [21]: 3.5 µM (active)
AC50 [22]: 30.3 µM (active)
AC50 [23]: 7.11 µM (active)
AC50 [24]: 12.7 µM (active)
AC50 [25]: 13.2 µM (active)
AC50 [26]: 30 µM (active)
AC50 [27]: 49.9 µM (active)

SMILES: CCN(CC)S(=O)(=O)c1ccc(S(=O)(=O)Nc2c(C)nn(C)c2C)cc1
AC50 [28]: 2.24 µM (active)
IC50 [29]: 8.16 µM (active)
AC50 [30]: 1.06 µM (active)
AC50 [31]: 36.6 µM (active)
AC50 [32]: 27.4 µM (active)

EC50 [33]: > 67.5 µM (inactive)
SMILES: CCN(CC)S(=O)(=O)c1ccc(C(=O)OCC(=O)Nc2ccc(-c3nc4ccc(C)cc4s3)cc2)cc1

SMILES: CSc1ccc(/C=N/Nc2ccc(Cl)c(C(=O)O)c2)cc1
EC50 [34]: > 350 µM (not active)
EC50 [35]: 7.23 µM (active)
EC50 [33]: > 67.5 µM (inactive)
